Data reported in patent US20250092269A1, “ANTI-BIOFOULING COMPOSITION” (Montana Technological University, priority 2023, published 2025).

Tests used:
[1] = Membrane performance (water quantity output) in bench scale nanofiltration system; settings: electrospun 3:1 PCL:PEG fibers with Urolithin A 200 μg/mL; 4-hour operation
Text: (§1) Bench Scale Nanofiltration System: A bench scale nanofiltration system for monitoring water output efficiencies and biofilm formation on MCE membranes was used as illustrated in FIG. 2.
In this example, biofouling on filtration membranes was investigated by examining anti-quorum sensing molecules in P. aeruginosa (PAO1). More specifically, a membrane comprising an unmodified membrane (referred to “MCE Control”); a membrane (referred to as “Control Fibers”) comprising a filter coating, which was deposited by electrospinning fibers comprising a polymer blend (3:1 polycaprolactone (PCL) to polyethylene glycol (PEG)); and a membrane (referred to as “Anti-QS Fibers” comprising a filter coating, which was deposited by electrospinning fibers comprising a polymer blend (3:1 polycaprolactone (PCL) to polyethylene glycol (PEG)) associated with one or more anti-QS molecules (200 μg/mL). Biofilm growth over a 4-hour operation was investigated and compared for the MCE Control, Control Fibers, and Anti-QS Fibers.

[2] = test system: P. aeruginosa (PAO1); assay: Biofilm growth on filtration membranes in bench scale nanofiltration system, 4-hour operation (CLSM); format: cell-based, Pseudomonas aeruginosa
Protocol: Polymeric Component: A polymer blend for electrospinning was prepared comprising 3 wt. % PEG (8,000 MW, Sigma Aldrich) and 8.9 wt. % PCL (80,000 MW, Sigma Aldrich) in chloroform. The PEG/PCL polymer blend was stirred with a Teflon coated stir bar at 80° C. until no visible polymer weas present.
Anti-Quorum Sensing Molecules: The polymeric component comprising the polymer blend was seeded with Urolithin A at a concentration of 200 μg/mL during mixing. Fiber mats comprising Urolithin A were stored at 4-8° C. for preservation prior to application.
Electrospinning: The polymeric component comprising the polymer blend was pumped continuously by a syringe pump at a fixed rate of 0.250 mL/hour to a vertical Spraybase electrospinner equipped with a 22-guage needle at a voltage of 6.6 kV and grounded equidistant copper-plated parallel electrodes for uniaxially aligned deposition (parallel gap electrospinning). A separation distance of 4 cm between the needle and grounded electrodes were maintained for 20 minutes while the fiber mat was fabricated. Fiber mats were rotated at 10 minutes to achieve a crosshatch filter pattern. Fibers were then placed onto MCE membranes and investigated for their controlled release of the anti-QS molecules. […]

[3] = test system: biofilm; assay: Biofilm growth on membranes with Urolithin A fibers at 50, 100, 200 μg/mL (CLSM); format: cell-based; settings: PCL/PEG fibers with Urolithin A 50, 100, 200 μg/mL; FIG. 6A-6D
Protocol: as §1
In this example, biofouling on filtration membranes was investigated by comparing membranes comprising a filter coating associated with one or more anti-QS Urolithin A molecules having concentrations of 50 μg/mL, 100 μg/mL, and 200 μg/mL.
FIG. 6A is a confocal microscopy (CLSM) image showing the biofilm growth on an unmodified control membrane. FIG. 6B is a confocal microscopy (CLSM) image showing the biofilm growth on a membrane comprising electrospun PCL/PEG fibers associated with one or more anti-QS Urolithin A molecules (50 μg/mL). FIG. 6C is a confocal microscopy (CLSM) image showing the biofilm growth on a membrane comprising electrospun PCL/PEG fibers associated with one or more anti-QS Urolithin A molecules (100 μg/mL). FIG. 6D is a confocal microscopy (CLSM) image showing the biofilm growth on a membrane comprising electrospun PCL/PEG fibers associated with one or more anti-QS Urolithin A molecules (200 μg/mL).

[4] = test system: biofilm; assay: Biofilm biovolume after 4-hour filtration test, furanone C-30 fibers vs control fibers (SEM); format: cell-based; settings: furanone C-30 control-released from 3:1 PCL/PEG fibers on MCE filter
Text: as §1
In this example, a membrane comprising a filter coating, which was deposited by electrospinning fibers comprising a polymer blend (3:1 polycaprolactone (PCL) to polyethylene glycol (PEG)) associated with one or more anti-QS molecules furanone C-30 was compared to a control membrane comprising a filter coating, which was deposited by electrospinning fibers comprising a polymer blend (3:1 polycaprolactone (PCL) to polyethylene glycol (PEG).
FIG. 8A is a scanning electron micrograph image showing the biofilm biovolume after a 4-hour filtration test of a MCE filter comprising electrospun PCL/PEG fibers. FIG. 8B is a scanning electron micrograph image showing the biofilm biovolume after a 4-hour filtration test of a MCE filter comprising electrospun PCL/PEG fibers associated with one or more anti-QS furanone C-30 molecules.

Row | Compound | increase of flux [1] [%] | reduction of biofilm formation during filtration compared to the MCE Control ([2]; electrospun 3:1 PCL:PEG coating with Urolithin A 200 μg/mL) [%] | increase of biovolume reduction by controlled release of anti QS molecules ([2]; electrospun 3:1 PCL:PEG fibers with Urolithin A 200 μg/mL) [%] | biofilm biovolume vs concentration of Urolithin A in fibers [3] | reduction in biovolume relative to the control membrane (PCL/PEG fibers) [4] [%]
1 | O=c1oc2cc(O)ccc2c2ccc(O)cc12 [Urolithin A] | 52.78 | 83.48 | 26.05 | biofilm biovolume reduction corresponding to the increased concentrations | 
2 | O=C1C=C(Br)/C(=C/Br)O1 [furanone C-30] |  |  |  |  | 57.5
